This is an account of results in ChEMBL document CHEMBL2073857, “Increased sensitivity to vincristine of MDR cells by the leukotriene D4 receptor antagonist, ONO-1078” (Cancer Lett, 1998).

For this data set, the target named is Multidrug resistance-associated protein 1 (MRP1) (Homo sapiens, UniProt P33527). Description: TP_TRANSPORTER: inhibition of LTC4 uptake (LTC4: 0.00134 uM, ONO-1078: 100 uM) in membrane vesicles from CV60 cells. It is filed as functional, cell membranes, Membrane vesicle. The settings on record: probe LTC4 (0.00134 uM), read-out: Activity. On the set-up: scale not given: the % may be the effect or the level left.
Multidrug resistance-associated protein 1 (MRP1), sequence (P33527 whole entry): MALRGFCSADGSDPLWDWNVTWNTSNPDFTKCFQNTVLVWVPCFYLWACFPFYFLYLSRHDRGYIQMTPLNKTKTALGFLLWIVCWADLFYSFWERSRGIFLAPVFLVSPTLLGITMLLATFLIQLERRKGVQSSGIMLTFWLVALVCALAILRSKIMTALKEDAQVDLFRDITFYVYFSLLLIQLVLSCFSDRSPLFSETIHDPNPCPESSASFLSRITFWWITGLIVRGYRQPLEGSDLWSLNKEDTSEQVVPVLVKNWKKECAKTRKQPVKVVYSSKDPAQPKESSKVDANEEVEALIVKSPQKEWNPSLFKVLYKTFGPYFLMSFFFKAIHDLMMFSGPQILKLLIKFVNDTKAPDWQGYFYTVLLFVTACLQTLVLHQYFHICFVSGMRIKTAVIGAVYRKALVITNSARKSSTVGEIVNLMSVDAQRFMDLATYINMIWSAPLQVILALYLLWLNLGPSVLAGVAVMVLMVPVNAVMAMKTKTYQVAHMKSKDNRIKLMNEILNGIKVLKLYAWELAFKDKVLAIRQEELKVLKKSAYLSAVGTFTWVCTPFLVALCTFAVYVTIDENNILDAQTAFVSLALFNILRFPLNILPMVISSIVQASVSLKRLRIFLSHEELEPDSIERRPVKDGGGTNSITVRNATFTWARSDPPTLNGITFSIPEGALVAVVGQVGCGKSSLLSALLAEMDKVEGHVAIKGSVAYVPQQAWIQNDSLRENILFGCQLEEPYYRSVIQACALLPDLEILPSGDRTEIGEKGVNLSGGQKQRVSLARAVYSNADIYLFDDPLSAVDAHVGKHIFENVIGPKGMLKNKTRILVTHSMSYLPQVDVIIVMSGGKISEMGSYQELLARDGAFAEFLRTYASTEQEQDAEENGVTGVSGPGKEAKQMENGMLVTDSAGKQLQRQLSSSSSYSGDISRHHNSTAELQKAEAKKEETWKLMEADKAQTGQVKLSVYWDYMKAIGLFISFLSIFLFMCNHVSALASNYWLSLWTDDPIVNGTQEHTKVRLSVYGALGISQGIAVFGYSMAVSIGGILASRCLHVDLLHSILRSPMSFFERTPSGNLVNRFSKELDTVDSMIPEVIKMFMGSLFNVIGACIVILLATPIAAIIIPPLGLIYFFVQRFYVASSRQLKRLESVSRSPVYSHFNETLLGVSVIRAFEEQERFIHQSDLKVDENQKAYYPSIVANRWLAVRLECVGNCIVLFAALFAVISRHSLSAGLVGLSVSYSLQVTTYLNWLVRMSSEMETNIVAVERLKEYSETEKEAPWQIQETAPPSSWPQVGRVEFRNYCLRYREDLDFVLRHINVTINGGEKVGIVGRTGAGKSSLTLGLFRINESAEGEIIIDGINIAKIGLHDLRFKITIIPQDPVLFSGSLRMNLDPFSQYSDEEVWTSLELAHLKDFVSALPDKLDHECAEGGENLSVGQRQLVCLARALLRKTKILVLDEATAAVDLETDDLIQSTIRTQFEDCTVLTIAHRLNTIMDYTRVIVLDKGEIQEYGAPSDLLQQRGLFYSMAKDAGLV

`O=C(Nc1cccc2c(=O)cc(-c3nnn[nH]3)oc12)c1ccc(OCCCCc2ccccc2)cc1` [PRANLUKAST]: the activity at 100 µM came out at 55%.
